Data: patent publication US20060135773A1, “Trisubstituted nitrogen modulators of tyrosine phosphatases” (priority 2004, published 2006)

Molecular target: T1, PTP-1B (Homo sapiens, UniProt P18031)
T1 construct: PTP-1B (purified, 1 mg/mL) as a 1:250 dilution
T1 sequence (P18031 1-321 limits assumed): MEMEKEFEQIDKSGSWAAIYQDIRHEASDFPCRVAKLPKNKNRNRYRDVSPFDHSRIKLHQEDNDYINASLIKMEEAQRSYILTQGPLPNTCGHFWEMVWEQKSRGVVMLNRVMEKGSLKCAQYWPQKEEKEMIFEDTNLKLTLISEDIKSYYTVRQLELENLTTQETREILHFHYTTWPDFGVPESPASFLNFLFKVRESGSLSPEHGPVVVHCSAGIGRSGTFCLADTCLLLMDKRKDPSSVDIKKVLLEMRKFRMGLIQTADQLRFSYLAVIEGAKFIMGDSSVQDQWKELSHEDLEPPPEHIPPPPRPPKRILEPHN
Test: pNPP tyrosine phosphatase inhibition assay, PTP-1B
Assay type: biochemical
Details: pNPP assay, PTP-1B; read-out: Activity Class (IC50 ranges)
Description: The compounds provided herein are evaluated for biological activity as inhibitors of PTP-1B using, for example, a pNPP assay can be used to screen compounds for tyrosine phosphatase inhibitory activity as described in the Examples.
A 5× stock of pNPP (p-nitrophenol phosphate) substrate is prepared as 50 mM pNPP in assay buffer. Various tyrosine phosphatase solutions can be prepared as follows: • PTP-1B (purified, 1 mg/mL) as a 1:250 dilution (to a final concentration of 4:g/mL); • TC-PTP (NEB, 1000 units in 100:L) as a 1:50 dilution (to a final concentration of 2U/10:L (4:g/mL)); • CD45 (Calbiochem, 20:g, 400 units in 100:L) as a 1:50 dilution (to a final concentration of 0.8U/10:L (4:g/mL)); • LAR (NEB, 1000 units in 200:L) as a 1:75 dilution (to a final concentration of 0.7U/10:L (4:g/mL)); and • PTP-β (UBI, #14-350, 10,000 units, 40:g/571:L) as a 1:17.5 dilution (to a final concentration of 10U/10:L (4:g/mL));
The compound to be tested is prepared as 1:16.7 and 1:50 dilutions from stock in a total volume of […] DMSO to give final concentrations of 626 and 200:M. The reaction mixtures are prepared in a 96-well microtiter plate (on ice) as 55:L assay buffer, 5:L of the diluted compound (to a final concentration of 31.3 and 10:M), 20:L of the pNPP substrate solution (to a final concentration of 10 mM) and 20:L PTPase in assay buffer. The reactants are mixed well, the plate placed in a water bath at 30° C. and incubated for 10 minutes. The reaction is then terminated by adding 100:L of 2M K2CO3 per well, and the absorbance is measured at 405 nm by conventional means.
Unless otherwise indicated, this assay was used to determine activity for the selected compounds whose activity is provided in Table 1.

Row | Molecule | IC50 [nM]
1 | 2,2-Dimethyl-propionic acid [(2-bromo-4-{[(4-methanesulfonyl-phenyl)-(2-methoxy-benzenesulfonyl)-amino]-methyl}-phenyl)-difluoro-methyl]-(2,2-dimethyl-propionyloxymethoxy)-phosphinoyloxymethyl ester [Compound 229] | > 25000
2 | 2,2-Dimethyl-propionic acid [(2-bromo-4-{[(4-methanesulfonyl-phenyl)-(2-methoxy-benzenesulfonyl)-amino]-methyl}-phenyl)-difluoro-methyl]-hydroxy-phosphinoyloxymethyl ester [Compound 228] | 2500 to 25000
3 | 2,2-Dimethyl-propionic acid [(2-chloro-4-{[(3,4-dichloro-benzyl)-(2-methoxy-benzenesulfonyl)-amino]-methyl}-phenyl)-difluoro-methyl]-hydroxy-phosphinoyloxymethyl ester [Compound 150] | 250 to 499
4 | 2-(3-{4-[({[4-(difluorophosphonomethyl)-3-chlorophenyl]methyl}[(2-methoxyphenyl)sulfonyl]amino)methyl]phenyl}phenyl)acetic acid [Compound 193] | < 99
5 | 3-[(4-{[(2-Methoxy-benzenesulfonyl)-naphthalen-1-ylmethyl-amino]-methyl}-phenyl)-oxalyl-amino]-butyric acid [Compound 225] | > 25000
6 | 3-{2-Bromo-4-[N-(4-cyanobenzyl)-N-(2-methoxy-benzenesulfonyl)aminomethyl]-phenoxy}-acetic acid [Compound 121] | > 25000
7 | 3-{4-[({[4-(difluorophosphonomethyl)-3-chlorophenyl]methyl}[(2-methoxyphenyl)sulfonyl]amino)methyl]phenyl}-5-bromobenzoic acid [Compound 195] | < 99
8 | 4-{2-[({[4-(difluorophosphonomethyl)-3-chlorophenyl]methyl}[(2-methoxyphenyl)sulfonyl]amino)methyl]phenyl}benzamide [Compound 199] | < 99
9 | 5-{4-[({[4-(difluorophosphonomethyl)-3-chlorophenyl]methyl}[(2-methoxyphenyl)sulfonyl]amino)methyl]phenyl}-2-methoxybenzoic acid [Compound 207] | < 99
10 | 5-{4-[({[4-(difluorophosphonomethyl)phenyl]methyl}[(2-methoxyphenyl)sulfonyl]amino)methyl]phenyl}-2-hydroxybenzoic acid [Compound 210] | 250 to 499
11 | COC(=O)c1ccc(CN(Cc2ccc(C(F)(F)P(=O)(O)O)c(Br)c2)S(=O)(=O)c2ccccc2)cc1 [Compound 30, 4-({Benzenesulfonyl-[3-bromo-4-(difluoro-phosphono-methyl)-benzyl]-amino}-methyl)-benzoic acid methyl ester] | 250 to 499
12 | O=P(O)(O)C(F)(F)c1ccc(CN(c2ccc(Cl)c(Cl)c2)S(=O)(=O)c2ccccc2)cc1Br [Compound 34, [(4-{[Benzenesulfonyl-(3,4-dichloro-phenyl)-amino]-methyl}-2-bromo-phenyl)-difluoro-methyl]-phosphonic acid] | 250 to 499
13 | O=P(O)(O)C(F)(F)c1ccc(CN(Cc2ccc(C(F)(F)P(=O)(O)O)c(Br)c2)S(=O)(=O)c2ccccc2)cc1 [Compound 38, {[4-({Benzenesulfonyl-[4-(difluoro-phosphono-methyl)-benzyl]-amino}-methyl)-2-bromo-phenyl]-difluoro-methyl}-phosphonic acid] | < 99
14 | O=P(O)(O)C(F)(F)c1ccc(CN(Cc2ccc(C(F)(F)P(=O)(O)O)c(Br)c2)S(=O)(=O)c2ccc3ccccc3c2)cc1 [Compound 42, [(2-Bromo-4-{[[4-(difluoro-phosphono-methyl)-benzyl]-(naphthalene-2-sulfonyl)-amino]-methyl}-phenyl)-difluoro-methyl]-phosphonic acid] | < 99
15 | COc1ccccc1S(=O)(=O)N(Cc1ccc(-c2cccc(C#N)c2)cc1)Cc1ccc(C(F)(F)P(=O)(O)O)c(Cl)c1 [Compound 46, [(2-Chloro-4-{[(3′-cyano-biphenyl-4-ylmethyl)-(2-methoxy-benzenesulfonyl)-amino]-methyl}-phenyl)-difluoro-methyl]-phosphonic acid] | 100 to 249
16 | COc1ccccc1S(=O)(=O)N(Cc1ccc(-c2cccc(-c3nn[nH]n3)c2)cc1)Cc1ccc(C(F)(F)P(=O)(O)O)c(Cl)c1 [Compound 47, {[2-Chloro-4-({(2-methoxy-benzenesulfonyl)-[3′-(2H-tetrazol-5-yl)-biphenyl-4-ylmethyl]-amino}-methyl)-phenyl]-difluoro-methyl}-phosphonic acid] | < 99
17 | COc1ccccc1S(=O)(=O)N(Cc1ccc(Cl)c(Cl)c1)Cc1ccc(NC(=O)C(=O)O)c(C(=O)O)c1 [Compound 56, 5-{[(3,4-Dichloro-benzyl)-(2-methoxy-benzenesulfonyl)-amino]-methyl}-2-(oxalyl-amino)-benzoic acid] | > 25000
18 | Cc1cc(C=C(C#N)C(=O)Nc2ccc3ccccc3c2)c(C)n1-c1ccc(C(=O)O)cc1 [Compound 58, 4-{3-[2-Cyano-2-(naphthalen-2-ylcarbamoyl)-vinyl]-2,5-dimethyl-pyrrol-1-yl}-benzoic acid] | > 25000
19 | CC(=O)N(Cc1ccc(C(F)(F)P(=O)(O)O)cc1)Cc1ccc(C(F)(F)P(=O)(O)O)cc1 [Compound 59, {[4-({Acetyl-[4-(difluoro-phosphono-methyl)-benzyl]-amino}-methyl)-phenyl]-difluoro-methyl}-phosphonic acid] | > 25000
20 | O=P(O)(O)C(F)(F)c1ccc(CN(Cc2ccc(C(F)(F)P(=O)(O)O)cc2)S(=O)(=O)c2ccccc2)cc1 [Compound 60, {[4-({Benzenesulfonyl-[4-(difluoro-phosphono-methyl)-benzyl]-amino}-methyl)-phenyl]-difluoro-methyl}-phosphonic acid] | 250 to 499
21 | CC(C)COC(=O)N(Cc1ccc(C(F)(F)P(=O)(O)O)cc1)Cc1ccc(C(F)(F)P(=O)(O)O)cc1 [Compound 61, {[4-({[4-(Difluoro-phosphono-methyl)-benzyl]-isobutoxycarbonyl-amino}-methyl)-phenyl]-difluoro-methyl}-phosphonic acid] | 2500 to 25000
22 | O=P(O)(O)C(F)(F)c1ccc(CN(Cc2ccc(C(F)(F)P(=O)(O)O)cc2)c2ccc(-c3ccccc3)cc2)cc1 [Compound 62, {[4-({Biphenyl-4-yl-[4-(difluoro-phosphono-methyl)-benzyl]-amino}-methyl)-phenyl]-difluoro-methyl}-phosphonic acid] | 2500 to 25000
23 | O=P(O)(O)C(F)(F)c1ccc(CN(Cc2ccc(C(F)(F)P(=O)(O)O)cc2)C2CCCC2)cc1 [Compound 63, {[4-({Cyclopentyl-[4-(difluoro-phosphono-methyl)-benzyl]-amino}-methyl)-phenyl]-difluoro-methyl}-phosphonic acid] | > 25000
24 | O=P(O)(O)C(F)(F)c1ccc(CN(Cc2ccc(C(F)(F)P(=O)(O)O)cc2)c2ccccc2)cc1 [Compound 64, {[4-({[4-(Difluoro-phosphono-methyl)-benzyl]-phenyl-amino}-methyl)-phenyl]-difluoro-methyl}-phosphonic acid] | 2500 to 25000
25 | O=P(O)(O)C(F)(F)c1ccc(CN(Cc2ccccc2)Cc2ccc(C(F)(F)P(=O)(O)O)cc2)cc1 [Compound 65, {[4-({Benzyl-[4-(difluoro-phosphono-methyl)-benzyl]-amino}-methyl)-phenyl]-difluoro-methyl}-phosphonic acid] | > 25000
26 | O=P(O)(O)C(F)(F)c1ccc(CN(Cc2ccc(C(F)(F)P(=O)(O)O)cc2)S(=O)(=O)c2ccc(-c3ccccc3)cc2)cc1 [Compound 66, {[4-({(Biphenyl-4-sulfonyl)-[4-(difluoro-phosphono-methyl)-benzyl]-amino}-methyl)-phenyl]-difluoro-methyl}-phosphonic acid] | 250 to 499
27 | O=P(O)(O)C(F)(F)c1ccc(CN(Cc2ccc(C(F)(F)P(=O)(O)O)cc2)S(=O)(=O)c2cccc3ccccc23)cc1 [Compound 67, [(4-{[[4-(Difluoro-phosphono-methyl)-benzyl]-(naphthalene-1-sulfonyl)-amino]-methyl}-phenyl)-difluoro-methyl]-phosphonic acid] | 2500 to 25000
